# Laboratory results as given in paper PMC4998957 (Nature, 2016).
# B1: RNase A: nuclease (protein, UniProt P61823 27-150, looked up)
# Ribonuclease pancreatic: KETAAAKFERQHMDSSTSAASSSNYCNQMMKSRNLTKDRCKPVNTFVHESLADVQAVCSQKNVACKNGQTNCYQSYSTMSITDCRETGSSKYPNCAYKTTQANKHIIVACEGNPYVPVHFDASV
# What was measured:
# CAHexamer = CAHexamer (Human immunodeficiency virus type 1 group M subtype B, UniProt P12493, A146C/E177C/M317A/W316A); format: binding, HIV-1
# [1] = target: CAHexamer (disulfide-stabilised HIV-1 capsid hexamer) (Human immunodeficiency virus type 1 group M subtype B, UniProt P12493, A146C/E177C/M317A/W316A); format: binding
# [2] = target: disulfide-stabilised HIV-1 capsid protein hexamer (CA_(Hexamer)) R18G (HIV-1); assay: cross-linking
# HIV-1 capsid cores = assay: Endogenous reverse transcription; format: biochemical; settings: DNase I and RNase A 100 μg/ml, Benzonase 250 U/ml, 100 μM each dNTP, 16 h
molecule,measurement,setting,value
Nc1ccn([C@H]2C[C@H](O)[C@@H](COP(=O)(O)OP(=O)(O)OP(=O)(O)O)O2)c(=O)n1 [dCTP],on-rate (kon),CAHexamer,> 2e+08 M⁻¹ s⁻¹
same,half life of complex,CAHexamer; equivalent of the off-rate,0.058 s
same,off-rate,CAHexamer; fluorescent dCTP displaced with excess unlabeled dCTP (20 µM),> 12 s⁻¹
Cc1cn([C@H]2C[C@H](O)[C@@H](COP(=O)(O)OP(=O)(O)OP(=O)(O)O)O2)c(=O)[nH]c1=O [dTTP],effect of 1 mM (physiological) inorganic phosphate on hexamer binding,"[1]; 2 nM fluorescein-labelled dTTP, 1 mM inorganic phosphate",no significant effect
same,comparison of affinity of ribose and deoxyribose nucleoside triphosphates,[1]; titration of CAHexamer into labelled nucleotides,same affinity
disulfide-stabilised HIV-1 capsid protein hexamer (CA_(Hexamer)) R18G (natural protein),stoichiometry N,[2],6
B1,effect of nucleases on encapsidated reverse transcription,HIV-1 capsid cores,failed to prevent
